According to patent publication US12473304B2, “Heterocyclic PAD4 inhibitors” (BRISTOL-MYERS SQUIBB COMPANY, priority 2020, dated 2025):

Target: human PAD4 (hPAD4) (Homo sapiens (Human), UniProt Q9UM07)
Assay: RFMS Human PAD4 Functional Assay 1
Format: biochemical
Conditions: RFMS assay 1; 5 nM hPAD4, 250 μM BAEE substrate, 50 μM calcium, 37° C.
In short: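 Citrullination product read by RapidFire triple-quad MRM against a modified-citrulline internal standard, after TCA stop and 30 min phenyl glyoxal step at 37 °C. Reaction: 250 μM BAEE, 5 nM human PAD4, 90 min at 37 °C, pH 7.5 HEPES buffer with 50 μM calcium and 5 μM TPEN, following 30 min compound–enzyme preincubation (max 50 μM).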

human PAD4 (hPAD4), sequence (Q9UM07 whole entry): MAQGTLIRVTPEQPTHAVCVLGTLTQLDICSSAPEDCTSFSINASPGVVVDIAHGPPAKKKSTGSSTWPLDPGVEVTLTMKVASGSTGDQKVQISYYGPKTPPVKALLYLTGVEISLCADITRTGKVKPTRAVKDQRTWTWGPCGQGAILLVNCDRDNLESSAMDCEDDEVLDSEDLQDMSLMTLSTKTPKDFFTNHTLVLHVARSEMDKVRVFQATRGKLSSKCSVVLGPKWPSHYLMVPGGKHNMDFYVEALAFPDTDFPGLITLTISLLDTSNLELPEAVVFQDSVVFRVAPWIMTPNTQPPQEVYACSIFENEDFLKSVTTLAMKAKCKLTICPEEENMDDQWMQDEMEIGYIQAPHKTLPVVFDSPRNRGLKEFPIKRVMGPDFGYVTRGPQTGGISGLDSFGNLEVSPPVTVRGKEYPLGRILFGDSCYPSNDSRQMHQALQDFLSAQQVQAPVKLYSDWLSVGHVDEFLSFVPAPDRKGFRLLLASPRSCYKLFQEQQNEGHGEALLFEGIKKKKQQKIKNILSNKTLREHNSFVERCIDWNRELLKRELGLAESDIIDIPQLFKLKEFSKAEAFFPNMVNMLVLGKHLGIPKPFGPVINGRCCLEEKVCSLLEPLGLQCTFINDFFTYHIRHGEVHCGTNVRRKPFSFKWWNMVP

Going from Cc1c(O)cccc1-c1ccc2cc(-c3nn4cc(C(=O)N5CC6CCC5[C@@H]6N)cc(F)c4c3C)n(CC3CC3)c2n1 (stereo partly drawn) [Example 259, 3-(2-{6-[(7R)-7-Amino-2-azabicyclo[2.2.1]heptane-2-carbonyl]-4-fluoro-3-methylpyrazolo[1,5-a]pyridin-2-yl}-1-(cyclopropylmethyl)-1H-pyrrolo[2,3-b]pyridin-6-yl)-2-methylphenol] to Cc1cc(-c2ccc3cc(-c4nn5cc(C(=O)N6CC7CCC6[C@@H]7N)cc(F)c5c4C)n(CC4CC4)c3n2)ccc1C(N)=O (stereo partly drawn) [Example 262, 4-(2-{6-[(7R)-7-Amino-2-azabicyclo[2.2.1]heptane-2-carbonyl]-4-fluoro-3-methylpyrazolo[1,5-a]pyridin-2-yl}-1-(cyclopropylmethyl)-1H-pyrrolo[2,3-b]pyridin-6-yl)-2-methylbenzamide], the IC50 rises from 20 nM to 120 nM (6-fold). The first is the more potent here.

Cc1cc(C(N)=O)c(F)cc1-c1ccc2cc(-c3nn4cc(C(=O)N5CC6CCC5[C@@H]6N)cc(F)c4c3C)n(CC3CC3)c2n1 (stereo partly drawn) [Example 260, 4-(2-{6-[(7R)-7-Amino-2-azabicyclo[2.2.1]heptane-2-carbonyl]-4-fluoro-3-methylpyrazolo[1,5-a]pyridin-2-yl}-1-(cyclopropylmethyl)-1H-pyrrolo[2,3-b]pyridin-6-yl)-2-fluoro-5-methylbenzamide] and Cc1cc(C(N)=O)c(F)cc1-c1ccc2cc(-c3nn4cc(C(=O)N5CCC[C@@H](N)C5)cc(F)c4c3C)n(CC3CC3)c2n1 [Example 277, 4-(2-{6-[(3R)-3-Aminopiperidine-1-carbonyl]-4-fluoro-3-methylpyrazolo[1,5-a]pyridin-2-yl}-1-(cyclopropylmethyl)-1H-pyrrolo[2,3-b]pyridin-6-yl)-2-fluoro-5-methylbenzamide] are the same in IC50: 220 nM for the first, 220 nM for the second.

Compared with Cc1c(-c2cc3ccc(-c4ccc(N5CCNC5=O)cc4)nc3n2CC2CC2)nn2cc(C(=O)N3CC4CCC3[C@@H]4N)cc(F)c12 (stereo partly drawn) [Example 261, 1-[4-(2-{6-[(7R)-7-Amino-2-azabicyclo[2.2.1]heptane-2-carbonyl]-4-fluoro-3-methylpyrazolo[1,5-a]pyridin-2-yl}-1-(cyclopropylmethyl)-1H-pyrrolo[2,3-b]pyridin-6-yl)phenyl]imidazolidin-2-one], Cc1c(-c2cc3ccc(-c4ccc(N5CCNC5=O)cc4)nc3n2CC2CC2)nn2cc(C(=O)N3CCC[C@@H](N)C3)cc(F)c12 [Example 280, 1-[4-(2-{6-[(3R)-3-Aminopiperidine-1-carbonyl]-4-fluoro-3-methylpyrazolo[1,5-a]pyridin-2-yl}-1-(cyclopropylmethyl)-1H-pyrrolo[2,3-b]pyridin-6-yl)phenyl]imidazolidin-2-one] is 2.6-fold higher in IC50: 420 nM for the first, 1090 nM for the second. The first is the more potent here.

Compared with Cc1c(-c2cc3ccc(-c4ccc(C(N)=O)cc4)nc3n2CC2CC2)nn2cc(C(=O)N3CC4CCC3[C@@H]4N)cc(F)c12 (stereo partly drawn) [Example 263, 4-(2-{6-[(7R)-7-Amino-2-azabicyclo[2.2.1]heptane-2-carbonyl]-4-fluoro-3-methylpyrazolo[1,5-a]pyridin-2-yl}-1-(cyclopropylmethyl)-1H-pyrrolo[2,3-b]pyridin-6-yl)benzamide], CNC(=O)c1ccc(-c2ccc3cc(-c4nn5cc(C(=O)N6CC7CCC6[C@@H]7N)cc(F)c5c4C)n(CC4CC4)c3n2)cn1 (stereo partly drawn) [Example 264, 5-(2-{6-[(7R)-7-Amino-2-azabicyclo[2.2.1]heptane-2-carbonyl]-4-fluoro-3-methylpyrazolo[1,5-a]pyridin-2-yl}-1-(cyclopropylmethyl)-1H-pyrrolo[2,3-b]pyridin-6-yl)-N-methylpyridine-2-carboxamide] is 9-fold lower in IC50: 90 nM for the first, 10 nM for the second.

First: Cc1c(-c2cc3ccc(N4CCC[C@@H](O)C4)nc3n2CC2CC2)nn2cc(C(=O)N3CC4CCC3[C@@H]4N)cc(F)c12 (stereo partly drawn) [Example 265, ((7R)-7-Amino-2-azabicyclo[2.2.1]heptan-2-yl)(2-(1-(cyclopropylmethyl)-6-((R)-3-hydroxypiperidin-1-yl)-1H-pyrrolo[2,3-b]pyridin-2-yl)-4-fluoro-3-methylpyrazolo[1,5-a]pyridin-6-yl)methanone]
Second: Cc1c(-c2cc3ccc(N4CCOCC4)nc3n2CC2CC2)nn2cc(C(=O)N3CC4CCC3[C@@H]4N)cc(F)c12 (stereo partly drawn) [Example 266, (7R)-2-{2-[1-(Cyclopropylmethyl)-6-(morpholin-4-yl)-1H-pyrrolo[2,3-b]pyridin-2-yl]-4-fluoro-3-methylpyrazolo[1,5-a]pyridine-6-carbonyl}-2-azabicyclo[2.2.1]heptan-7-amine]
The IC50 of the first is 2.5-fold lower: 110 nM for the first, 280 nM for the second. The first is the more potent here.

Cc1c(-c2cc3ccc(N4CCOCC4=O)nc3n2CC2CC2)nn2cc(C(=O)N3CC4CCC3[C@@H]4N)cc(F)c12 (stereo partly drawn) [Example 267, 4-(2-{6-[(7R)-7-Amino-2-azabicyclo[2.2.1]heptane-2-carbonyl]-4-fluoro-3-methylpyrazolo[1,5-a]pyridin-2-yl}-1-(cyclopropylmethyl)-1H-pyrrolo[2,3-b]pyridin-6-yl)morpholin-3-one] and Cc1c(-c2cc3ccc(N4CCC(S(C)(=O)=O)CC4)nc3n2CC2CC2)nn2cc(C(=O)N3CC4CCC3[C@@H]4N)cc(F)c12 (stereo partly drawn) [Example 268, (7R)-2-{2-[1-(Cyclopropylmethyl)-6-(4-methanesulfonylpiperidin-1-yl)-1H-pyrrolo[2,3-b]pyridin-2-yl]-4-fluoro-3-methylpyrazolo[1,5-a]pyridine-6-carbonyl}-2-azabicyclo[2.2.1]heptan-7-amine] are within 1.5-fold of each other in IC50: 50 nM for the first, 40 nM for the second.

Going from Cc1c(-c2cc3ccc(N4CCC5(CC4)CN(C)C(=O)O5)nc3n2CC2CC2)nn2cc(C(=O)N3CCC[C@@H](N)C3)cc(F)c12 [Example 269, 8-(2-{6-[(3R)-3-Aminopiperidine-1-carbonyl]-4-fluoro-3-methylpyrazolo[1,5-a]pyridin-2-yl}-1-(cyclopropylmethyl)-1H-pyrrolo[2,3-b]pyridin-6-yl)-3-methyl-1-oxa-3,8-diazaspiro[4.5]decan-2-one] to Cc1c(-c2cc3ccc(N4CCC(S(C)(=O)=O)CC4)nc3n2CC2CC2)nn2cc(C(=O)N3CCC[C@@H](N)C3)cc(F)c12 [Example 270, (3R)-1-{2-[1-(Cyclopropylmethyl)-6-(4-methanesulfonylpiperidin-1-yl)-1H-pyrrolo[2,3-b]pyridin-2-yl]-4-fluoro-3-methylpyrazolo[1,5-a]pyridine-6-carbonyl}piperidin-3-amine], the IC50 rises from 540 nM to 2110 nM (3.9-fold).

First: CC(=O)N(C)C1CCN(c2ccc3cc(-c4nn5cc(C(=O)N6CCC[C@@H](N)C6)cc(F)c5c4C)n(CC4CC4)c3n2)CC1 [Example 271, N-[1-(2-{6-[(3R)-3-Aminopiperidine-1-carbonyl]-4-fluoro-3-methylpyrazolo[1,5-a]pyridin-2-yl}-1-(cyclopropylmethyl)-1H-pyrrolo[2,3-b]pyridin-6-yl)piperidin-4-yl]-N-methylacetamide]
Second: COC(=O)N(C)C1CCN(c2ccc3cc(-c4nn5cc(C(=O)N6CCC[C@@H](N)C6)cc(F)c5c4C)n(CC4CC4)c3n2)CC1 [Example 272, Methyl N-[1-(2-{6-[(3R)-3-aminopiperidine-1-carbonyl]-4-fluoro-3-methylpyrazolo[1,5-a]pyridin-2-yl}-1-(cyclopropylmethyl)-1H-pyrrolo[2,3-b]pyridin-6-yl)piperidin-4-yl]-N-methylcarbamate]
The IC50 of the first is 1.8-fold lower: 2070 nM for the first, 3810 nM for the second.

Cc1c(-c2cc3ccc(N4CCC(N5CCCC5=O)CC4)nc3n2CC2CC2)nn2cc(C(=O)N3CCC[C@@H](N)C3)cc(F)c12 [Example 273, 1-[1-(2-{6-[(3R)-3-Aminopiperidine-1-carbonyl]-4-fluoro-3-methylpyrazolo[1,5-a]pyridin-2-yl}-1-(cyclopropylmethyl)-1H-pyrrolo[2,3-b]pyridin-6-yl)piperidin-4-yl]pyrrolidin-2-one] and COC1CCN(c2ccc3cc(-c4nn5cc(C(=O)N6CCC[C@@H](N)C6)cc(Cl)c5c4C)n(CC4CC4)c3n2)CC1 [Example 276, (3R)-1-{4-Chloro-2-[1-(cyclopropylmethyl)-6-(4-methoxypiperidin-1-yl)-1H-pyrrolo[2,3-b]pyridin-2-yl]-3-methylpyrazolo[1,5-a]pyridine-6-carbonyl}piperidin-3-amine] are within 1.5-fold of each other in IC50: 2420 nM for the first, 2770 nM for the second.

Cc1c(-c2cc3ccc(OC[C@@H]4CCC(=O)N4)nc3n2CC2CC2)nn2cc(C(=O)N3CC4CCC3[C@@H]4N)cc(F)c12 (stereo partly drawn) [Example 274, (5S)-5-{[(2-{6-[(7R)-7-Amino-2-azabicyclo[2.2.1]heptane-2-carbonyl]-4-fluoro-3-methylpyrazolo[1,5-a]pyridin-2-yl}-1-(cyclopropylmethyl)-1H-pyrrolo[2,3-b]pyridin-6-yl)oxy]methyl}pyrrolidin-2-one] and Cc1c(-c2cc3ccc(-c4ccc(C(N)=O)c(F)c4)nc3n2CC2CC2)nn2cc(C(=O)N3CCC[C@@H](N)C3)cc(F)c12 [Example 279, 4-(2-{6-[(3R)-3-Aminopiperidine-1-carbonyl]-4-fluoro-3-methylpyrazolo[1,5-a]pyridin-2-yl}-1-(cyclopropylmethyl)-1H-pyrrolo[2,3-b]pyridin-6-yl)-2-fluorobenzamide] are within 1.5-fold of each other in IC50: 270 nM for the first, 200 nM for the second.

Compared with Cc1c(-c2cc3ccc(-c4cccc(O)c4Cl)nc3n2CC2CC2)nn2cc(C(=O)N3CCC[C@@H](N)C3)cc(F)c12 [Example 278, 3-(2-{6-[(3R)-3-Aminopiperidine-1-carbonyl]-4-fluoro-3-methylpyrazolo[1,5-a]pyridin-2-yl}-1-(cyclopropylmethyl)-1H-pyrrolo[2,3-b]pyridin-6-yl)-2-chlorophenol], Cc1c(-c2cc3ccc(-c4ccccc4N4CCNC4=O)nc3n2CC2CC2)nn2cc(C(=O)N3CCC[C@@H](N)C3)cc(F)c12 [Example 281, 1-[2-(2-{6-[(3R)-3-Aminopiperidine-1-carbonyl]-4-fluoro-3-methylpyrazolo[1,5-a]pyridin-2-yl}-1-(cyclopropylmethyl)-1H-pyrrolo[2,3-b]pyridin-6-yl)phenyl]imidazolidin-2-one] is 2.8-fold lower in IC50: 390 nM for the first, 140 nM for the second. The second is the more potent here.
